Source: US6352834B1, “Prostate cancer assays and related methods” (University of Iowa Research Foundation, priority 1998, dated 2002)

Tests used:
LNCaP cells [1] = experiment: Thymidine (3H) incorporation, LNCaP cells in 96-well plates; format: cell-based; settings: Homo sapiens, read-out: % Inhibition 3H
Procedure: (§1) Comment: Table 2 is data from one of three similar experiments in which cells were cultured for 72 hours following the methods described in the proposal (i.e., cells in 6-well plates for PSA studies and cells in 96-well plates for thymidine incorporation, both at the same cell concentration). […] For viable cells, the per cell production of PSA rose 33.6% (column 8: PSA value of 1.5×10E7 molecules per cell divided by control value of 1.13×10E7).

LNCaP cells [2] = experiment: PSA assay on tissue culture supernatants of LNCaP cells cultured with iron chelator; format: cell-based; settings: for Molecules PSA Per Viable Cell / Total PSA / Molecules PSA Per Cell: 72 Hrs; for Total PSA: from 3.0 ml supernatant per well; for Molecules PSA Per Cell: total cells recovered
Procedure: as §1, with “1.13×10E7). […]” for “1.13×10E7).”

[3] = Cell counts and viability of LNCaP cells after culture with iron chelator; format: cell-based; settings: human, LNCaP cells
Procedure: as §1, with “1.13×10E7). […]” for “1.13×10E7).”

LNCaP cells [4] = experiment: as above; format: cell-based; settings: 72 Hrs
Procedure: as §1, with “1.13×10E7). […]” for “1.13×10E7).”

transferrin receptor = transferrin receptor (Homo sapiens, UniProt P02786); settings: Forsbeck et al.; cited from earlier work
transferrin receptor, sequence (P02786 whole entry): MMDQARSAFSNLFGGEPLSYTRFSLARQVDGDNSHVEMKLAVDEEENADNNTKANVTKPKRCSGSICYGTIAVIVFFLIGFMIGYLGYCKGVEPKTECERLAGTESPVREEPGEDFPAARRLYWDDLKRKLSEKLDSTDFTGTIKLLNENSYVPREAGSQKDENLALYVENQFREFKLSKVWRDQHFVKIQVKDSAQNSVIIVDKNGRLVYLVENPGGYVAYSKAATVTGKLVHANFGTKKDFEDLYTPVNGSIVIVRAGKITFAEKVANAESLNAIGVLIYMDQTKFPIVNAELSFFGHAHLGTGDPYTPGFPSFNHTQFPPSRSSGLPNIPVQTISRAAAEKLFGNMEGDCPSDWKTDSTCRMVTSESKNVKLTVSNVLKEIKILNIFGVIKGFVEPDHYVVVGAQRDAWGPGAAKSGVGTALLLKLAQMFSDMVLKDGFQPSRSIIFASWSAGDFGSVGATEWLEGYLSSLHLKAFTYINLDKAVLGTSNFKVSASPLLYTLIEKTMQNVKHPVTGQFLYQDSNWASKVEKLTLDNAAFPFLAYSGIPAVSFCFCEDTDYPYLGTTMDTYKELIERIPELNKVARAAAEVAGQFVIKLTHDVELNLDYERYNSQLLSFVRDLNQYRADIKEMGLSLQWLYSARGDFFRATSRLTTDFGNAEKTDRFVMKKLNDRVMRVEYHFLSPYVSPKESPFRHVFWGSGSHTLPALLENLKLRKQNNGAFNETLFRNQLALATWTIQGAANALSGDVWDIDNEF

CC(=O)N(O)CCCCCNC(=O)CCC(=O)N(O)CCCCCNC(=O)CCC(=O)N(O)CCCCCN [Desferal, Deferoxamine]
inhibition at 0.1 µg/mL (LNCaP cells [1]): 1.8% | inhibition at 0.25 µg/mL (LNCaP cells [1]): 6.8% | inhibition at 0.5 µg/mL (LNCaP cells [1]): 7.4% | inhibition at 1 µg/mL (LNCaP cells [1]): 10.6% | inhibition at 2 µg/mL (LNCaP cells [1]): 21.1% | inhibition at 2.5 µg/mL (LNCaP cells [1]): 26.8% | inhibition at 3 µg/mL (LNCaP cells [1]): 40.3% | inhibition at 4 µg/mL (LNCaP cells [1]): 52.7% | rise in production of PSA per viable cell versus control (LNCaP cells [2]; DFO 2.5 micrograms/ml, 72 hours): 33.6% | Molecules PSA Per Viable Cell (LNCaP cells [2]; Desferal 0.1 ug/ml): 1.28 × 10^7 | Total PSA (LNCaP cells [2]; Desferal 0.1 ug/ml): 710 ng | Molecules PSA Per Cell (LNCaP cells [2]; Desferal 0.1 ug/ml): 1.20 × 10^7 | Molecules PSA Per Viable Cell (LNCaP cells [2]; Desferal 0.25 ug/ml): 1.30 × 10^7 | Total PSA (LNCaP cells [2]; Desferal 0.25 ug/ml): 710 ng | Molecules PSA Per Cell (LNCaP cells [2]; Desferal 0.25 ug/ml): 1.22 × 10^7 | Molecules PSA Per Viable Cell (LNCaP cells [2]; Desferal 0.50 ug/ml): 1.14 × 10^7 | Total PSA (LNCaP cells [2]; Desferal 0.50 ug/ml): 650 ng | Molecules PSA Per Cell (LNCaP cells [2]; Desferal 0.50 ug/ml): 1.06 × 10^7 | Molecules PSA Per Viable Cell (LNCaP cells [2]; Desferal 1.0 ug/ml): 1.12 × 10^7 | Total PSA (LNCaP cells [2]; Desferal 1.0 ug/ml): 644 ng | Molecules PSA Per Cell (LNCaP cells [2]; Desferal 1.0 ug/ml): 1.04 × 10^7 | Molecules PSA Per Viable Cell (LNCaP cells [2]; Desferal 2.0 ug/ml): 1.41 × 10^7 | Total PSA (LNCaP cells [2]; Desferal 2.0 ug/ml): 642 ng | Molecules PSA Per Cell (LNCaP cells [2]; Desferal 2.0 ug/ml): 1.32 × 10^7 | Molecules PSA Per Viable Cell (LNCaP cells [2]; Desferal 2.5 ug/ml): 1.51 × 10^7 | Total PSA (LNCaP cells [2]; Desferal 2.5 ug/ml): 627 ng | Molecules PSA Per Cell (LNCaP cells [2]; Desferal 2.5 ug/ml): 1.42 × 10^7 | Molecules PSA Per Viable Cell (LNCaP cells [2]; Desferal 3.0 ug/ml): 1.59 × 10^7 | Total PSA (LNCaP cells [2]; Desferal 3.0 ug/ml): 587 ng | Molecules PSA Per Cell (LNCaP cells [2]; Desferal 3.0 ug/ml): 1.45 × 10^7 | Molecules PSA Per Viable Cell (LNCaP cells [2]; Desferal 4.0 ug/ml): 1.80 × 10^7 | Total PSA (LNCaP cells [2]; Desferal 4.0 ug/ml): 611 ng | Molecules PSA Per Cell (LNCaP cells [2]; Desferal 4.0 ug/ml): 1.54 × 10^7 | viability at 72 h, 0.1 ug/ml ([3]; Desferal 0.1 ug/ml): 93% | viability at 72 h, 0.25 ug/ml ([3]; Desferal 0.25 ug/ml): 93.8% | viability at 72 h, 0.5 ug/ml ([3]; Desferal 0.50 ug/ml): 93.4% | viability at 72 h, 1 ug/ml ([3]; Desferal 1.0 ug/ml): 92.2% | viability at 72 h, 2 ug/ml ([3]; Desferal 2.0 ug/ml): 98.3% | viability at 72 h, 2.5 ug/ml ([3]; Desferal 2.5 ug/ml): 94.3% | viability at 72 h, 3 ug/ml ([3]; Desferal 3.0 ug/ml): 90.9% | viability at 72 h, 4 ug/ml ([3]; Desferal 4.0 ug/ml): 85.4% | Total Cells (LNCaP cells [4]; Desferal 0.1 ug/ml): 1.09 × 10^6 | Total Viable Cells (LNCaP cells [4]; Desferal 0.1 ug/ml): 1.01 × 10^6 | Total Cells (LNCaP cells [4]; Desferal 0.25 ug/ml): 1.07 × 10^6 | Total Viable Cells (LNCaP cells [4]; Desferal 0.25 ug/ml): 1.00 × 10^6 | Total Cells (LNCaP cells [4]; Desferal 0.50 ug/ml): 1.13 × 10^6 | Total Viable Cells (LNCaP cells [4]; Desferal 0.50 ug/ml): 1.06 × 10^6 | Total Cells (LNCaP cells [4]; Desferal 1.0 ug/ml): 1.14 × 10^6 | Total Viable Cells (LNCaP cells [4]; Desferal 1.0 ug/ml): 1.05 × 10^6 | Total Cells (LNCaP cells [4]; Desferal 2.0 ug/ml): .900 × 10^6 | Total Viable Cells (LNCaP cells [4]; Desferal 2.0 ug/ml): 840 × 10^6 | Total Cells (LNCaP cells [4]; Desferal 2.5 ug/ml): .810 × 10^6 | Total Viable Cells (LNCaP cells [4]; Desferal 2.5 ug/ml): .760 × 10^6 | Total Cells (LNCaP cells [4]; Desferal 3.0 ug/ml): .744 × 10^6 | Total Viable Cells (LNCaP cells [4]; Desferal 3.0 ug/ml): .680 × 10^6 | Total Cells (LNCaP cells [4]; Desferal 4.0 ug/ml): .730 × 10^6 | Total Viable Cells (LNCaP cells [4]; Desferal 4.0 ug/ml): .620 × 10^6

Cc1ccc(C(=O)Nc2ccc(S(=O)(=O)O)c3cc(S(=O)(=O)O)cc(S(=O)(=O)O)c23)cc1NC(=O)c1cccc(NC(=O)Nc2cccc(C(=O)Nc3cc(C(=O)Nc4ccc(S(=O)(=O)O)c5cc(S(=O)(=O)O)cc(S(=O)(=O)O)c45)ccc3C)c2)c1 [suramin]
binding of transferrin to its receptor (transferrin receptor): partially inhibit
